These results are taken from patent US20080254106A1 (SWITCH BIOTECH AG, priority 2004, published 2008).

For one assay, the system named is noradrenaline reuptake. To be noted: cited from earlier work.
In the next assay the test system is TNFα. Nature of the assay: Secretion of TNFα of LPS stimulated THP-1 cells (ELISA). It counts as cell-based. To be noted: 50 ng/ml LPS, six hours, concentration of 10 μmol/l and higher. The procedure:
After stimulation with 50 ng/ml LPS the release of TNFα was determined.
After 2 h cells were stimulated with 50 ng/ml LPS. Six hours after LPS addition, culture supernatants were collected. TNFα concentrations were measured using an enzyme linked immunosorbent assay according to manufacturers protocol (R&D systems, #DTA00C). The TNFα concentrations reached after LPS stimulation without further treatment was set to 100%.
For orientation: An ELISA detects its analyte on a solid surface through an enzyme-linked reagent.

The next assay concerns cholinergic system. The following applies: cited from earlier work.
Assay [1] has as its system transplanted human psoriatic skin biopsies. Nature of the assay: Human psoriatic skin transplant SCID mouse model. It counts as in vivo, SCID mice. To be noted: 50 mg/kg daily intraperitoneal, four weeks, in comparison to vehicle control animals.
Experimental: SCID mice were transplanted with human psoriatic skin biopsies. Two weeks after surgery therapy started. […] After four weeks of therapy the mice were sacrificed and biopsies were taken. 4 μm slices of the biopsies were stained with Masson trichrom. Epidermal areas were calculated. […] Treatment started two weeks after the transplantation. […] For therapy, 300 μl of a 5 mg/ml solution was daily injected intraperitonally (=50 mg/kg). The control group was injected in the same way with 300 μl vehicle. After four weeks the animals were sacrificed. The biopsies were removed, histologically stained (Masson trichrom) and examined for changes of the epidermal area.
In assay [2] the test system is 5-hydroxytryptamine reuptake. The following applies: cited from earlier work.
The next assay concerns HaCaT keratinocytes. Kind of assay: Proliferation of HaCaT keratinocytes (BrDU incorporation). It counts as cell-based. The following applies: Homo sapiens, 48 hours treatment, relative to FCS stimulated positive control, mean of at least four experiments. The method, then:
As a negative control cells were incubated with KBM.
For this purpose 5×10^3 HaCaT keratinocytes were seeded into 60 wells of a 96 well-plate in 200 μl KBM/10% FCS each and incubated for 24 hours at 37° C. […] At the end of the second incubation period the medium was removed and cell proliferation was determined by BrDU incorporation (Roche, #1 669 915) according to the manufacturer's instructions. […] All other values were divided by the 100% value to obtain the relative percentage of proliferation. […] At least four independent experiments were performed.

A short description of assay [3]: DTH (oxazolone) mouse ear swelling model. It counts as in vivo. To be noted: topical 4%, 1%, 0.1% and 0.01% in acetone/olive oil, compared to placebo control. The procedure: A mixture of acetone/olive oil (4:1 vol/vol) is used as vehicle. Ear thickness is measured before start of the treatment (day 0), before challenge (day 6), and 24 h after challenge (d7, ear swelling response) (instrumentation e.g. Mitutoyo-Messgeräte GmbH). In addition, at the end of the experiment ear weights are determined by weighing 8 mm punch biopsies taken from both ears of each individual animal.

The subject of assay [4] is α-CD3 stimulated peripheral blood mononuclear cells. Kind of assay: Proliferation of anti-CD3 stimulated PBMCs/T cells ([3H]-thymidine incorporation). It counts as cell-based. The procedure: Peripheral blood mononuclear cells (PBMCs) were isolated by Ficoll-gradient centrifugation from peripheral blood. 1×10^6 PBMCs/ml were re-suspended in RPMI/10% fetal calf serum (FCS) in 96-well plates in a concentration of 2×10^5 cells/well. […] As positive and negative controls PBMCs were used, which were stimulated by anti-CD3-antibody and non-stimulated PBMCs, respectively. The final concentration of the solvent DMSO was 0.1% in all examined wells. After two further days of incubation the cells were incubated with 1 μCi per well [^3H]-thymidine for 18 hours. The cells were then recovered on glass fibre filters by using a Micro 96 Harvester (Skatron Instruments, Lier, Norway). The incorporated radioactivity was analysed with a Packard Matrix 9600 Counter (Can berra Packard, Schwadorf, Austria). The experiments were carried out with the blood of three different donors. […] All other values were divided by the 100% value to obtain the relative percentage of proliferation.

Another assay deals with T1, monoamine oxidase A (Homo sapiens, UniProt P21397).
T1 sequence (P21397 1-527): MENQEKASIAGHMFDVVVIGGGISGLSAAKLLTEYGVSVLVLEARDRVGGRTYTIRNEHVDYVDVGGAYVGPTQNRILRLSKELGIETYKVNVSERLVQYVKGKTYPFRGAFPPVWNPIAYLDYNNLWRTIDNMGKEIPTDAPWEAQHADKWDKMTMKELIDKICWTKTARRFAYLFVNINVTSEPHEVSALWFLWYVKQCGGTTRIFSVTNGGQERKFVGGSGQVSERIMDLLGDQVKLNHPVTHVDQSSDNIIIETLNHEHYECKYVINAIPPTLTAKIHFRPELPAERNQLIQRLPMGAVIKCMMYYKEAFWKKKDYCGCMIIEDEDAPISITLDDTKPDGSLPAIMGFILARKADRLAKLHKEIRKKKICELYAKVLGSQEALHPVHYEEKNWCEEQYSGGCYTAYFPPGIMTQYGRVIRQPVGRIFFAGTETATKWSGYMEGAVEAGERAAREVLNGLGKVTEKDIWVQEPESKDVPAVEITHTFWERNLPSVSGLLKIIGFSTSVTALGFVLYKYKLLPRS
The following applies: proposed mechanism of action; cited from earlier work.

A further assay relates to dopaminergic system. To be noted: cited from earlier work.

For the compound `Cc1ccc2c(c1)c1c3n2CCNC3CCC1` (centres unmarked) [Pirlindole, 2,3,3a,4,5,6-hexahydro-8-methyl-1H-pyrazino[3,2,1-jk]carbazole], the “Effect on noradrenaline reuptake” value in the assay with noradrenaline reuptake is listed as “inhibitory effect”. Moreover, the “Release of TNFα” value with TNFα is on record as “clear inhibition”. The “Effect on the cholinergic system” value in the assay on cholinergic system was “no effect”. In assay [1], the “Epidermal area of the transplants” value is listed as “clearly decreased”. The “Effect on 5-hydroxytryptamine reuptake” value in assay [2] is “inhibitory effect”. Besides, the concentration for half-maximal inhibition (IC50) came out at 47 µM with HaCaT keratinocytes and 16 µM in [4] (PBMC, 10 μg/ml soluble anti-CD3-antibody, [3H]-thymidine, three donors, mean). Also, the “Parameters of inflammation severity (ear weight, ear thickness)” value in [3] is listed as “improvement of one or more parameters of inflammation severity”. In addition, the “Inhibitory effect on proliferation in vitro” value in assay [4] (at a concentration of Pirlindole of 10 μmol/l (examples 2, 3)) is “inhibitory effect”. In addition, the “Inhibition of monoamine oxidase A” value on monoamine oxidase A is “selective and reversible inhibition”. Further, the “Effect on the dopaminergic system” value in the assay on dopaminergic system was “no effect”.

The term IC50 denotes the concentration that gives 50% inhibition. A lower IC50 goes with higher potency.
